Reference: US20260364214A1, “MULTIVALENT FIBROBLAST ACTIVATION PROTEIN LIGANDS FOR TARGETED DELIVERY APPLICATIONS” (Philochem AG, priority 2022, published 2026)

Experiments:
SK-RC-52.hFAP tumors [1] = experiment: Therapeutic efficacy in SK-RC-52.hFAP tumor bearing mice; type: in vivo, mouse (athymic Balb/c AnNRj-Foxn1); conditions: single administration, 250 nmol/kg, 250 MBq/kg
Method: SK-RC-52.hFAP were grown to 80% confluence in RPMI-1640 with 10% fetal bovine serum (FBS) and 1% antibiotic-antimycotic and detached with Trypsin-EDTA (ethylenediaminetetraacetic acid) 0.05%. Tumor cells were resuspended in Hanks' Balanced Salt Solution medium. Aliquots of 5 million cells (100 μL of suspension) were injected subcutaneously in the right flank of female athymic Balb/c AnNRj-Foxn1 mice (6 to 8 wk of age).
Prior to the therapy studies, precursors (25 nmol) were dissolved in 25 μL of milliQ water, then sodium acetate buffer (75 μL, 1 M in water) and 25, 75 or 150 MBq of ^177Lu solution were added. The mixture was heated at 90 °C for 1 minutes followed by dilution with 400 μL of PBS to afford a final volume of 500 μL (5 doses of 100 μL each). […]
The anti-cancer efficacy of ^177Lu-ESV6, ^177Lu-Bi-ESV6 and ^177Lu-Tri-ESV6 was assessed in athymic Balb/c AnNRj-Foxn1 mice bearing SK-RC-52.hFAP tumor in the right flank. ^177Lu-ESV6, ^177Lu-Bi-ESV6 or ^177Lu-Tri-ESV6 were intravenously administered at a dose of 250 nmol/kg, 250 MBq/kg (single administration on day 9 after tumor implantation). […] Body weight of the animals and tumor volume were daily measured and recorded. Tumor dimensions were measured with an electronic caliper and tumor volume was calculated with the formula (long side, mm)×(short side, mm)×(short side, mm)×0.5. […]

[2] = Determination of Log D7.4 (1-octanol/PBS); type: physicochemical; conditions: 1-octanol/PBS pH 7.4; 177Lu-labeled
Method: The lipophilicity of ^177Lu-ESV6, ^177Lu-Bi-ESV6, ^177Lu-Tri-ESV6 and ^177Lu-FAP-2286 was determined as follows. 100 μL aliquots of the radioligand (~1 MBq) in PBS buffer were added to PBS buffer (500 μL, pH 7.4) and 1-octanol (600 μL). The two-layer mixture were vigorously shaken for 10 minutes on a vortex mixer and then centrifuged at 700 rpm for 5 min to facilitate the separation. 100 μL aliquots of both layers were measured in a Packard Cobra Gamma Counter and the partition coefficient was determined by dividing cpm (octanol) by cpm (PBS) and indicated as Log D7.4. • Log D7.4 (^177Lu-ESV6): −4.13 • Log D7.4 (^177Lu-Bi-ESV6): −3.75 • Log D7.4 (^177Lu-Tri-ESV6): −3.10 • Log D7.4 (^177Lu-FAP-2286): −3.05

SK-RC-52.hFAP tumors [3] = experiment: 177Lu biodistribution at different radioisotope molar activities; type: in vivo, mouse; conditions: 0.2 vs 4.8 MBq/nmol; 24 h post injection
Method: Prior to the biodistribution study at different specific activities (FIG. 19), precursors (20 nmol) were dissolved in milliQ water and diluted with sodium acetate (1 M in water, pH=4.5). ^177Lu solution (4 or 96 MBq) were added and the mixture was heated at 90 °C for 10 minutes, followed by dilution with PBS to achieve final volume of 400 μL (4 doses of 100 μL each, corresponding to 0.2 MBq/nmol and 4.8MBq/nmol, respectively).
Results of the ^177Lu biodistribution study at different specific activities: low (0.2 MBq/nmol) and high (4.8 MBq/nmol) with ^177Lu Tri-ESV6-DOTAGA are shown in FIG. 19.

| SMILES | therapeutic activity (tumor volume), in words (SK-RC-52.hFAP tumors [1]) | Log D7.4 [2] | effect of molar activity on biodistribution, in words (SK-RC-52.hFAP tumors [3]) |
| --- | --- | --- | --- |
| N#C[C@@H]1CC(F)(F)CN1C(=O)CNC(=O)c1ccnc2c(NC(=O)CCC(=O)NCCNC(=O)CCOCC(COCCC(=O)NCCNC(=O)CCC(=O)Nc3cccc4c(C(=O)NCC(=O)N5CC(F)(F)C[C@H]5C#N)ccnc34)(COCCC(=O)NCCNC(=O)CCC(=O)Nc3cccc4c(C(=O)NCC(=O)N5CC(F)(F)C[C@H]5C#N)ccnc34)NC(=O)CCC(C(=O)O)N3CCN(CC(=O)O)CCN(CC(=O)O)CCN(CC(=O)O)CC3)cccc12 (stereo partly drawn) [Tri-ESV6-DOTAGA, 2,2′,2″-(10-(19-carboxy-1-((4-((2-((S)-2-cyano-4,4-difluoropyrrolidin-1-yl)-2-oxoethyl)carbamoyl)quinolin-8-yl)amino)-14,14-bis((3-((2-(4-((4-((2-((S)-2-cyano-4,4-difluoropyrrolidin-1-yl)-2-oxoethyl)carbamoyl)quinolin-8-yl)amino)-4-oxobutanamido)ethyl)amino)-3-oxopropoxy)methyl)-1,4,9,16-tetraoxo-12-oxa-5,8,15-triazanonadecan-19-yl)-1,4,7,10-tetraazacyclododecane-1,4,7-triyl)triacetic acid] | remarkable therapeutic activity | – | – |
| N#CC1CC(F)(F)CN1C(=O)CNC(=O)c1ccnc2c(NC(=O)CCC(=O)NCCNC(=O)CCOCC(COCCC(=O)NCCNC(=O)CCC(=O)Nc3cccc4c(C(=O)NCC(=O)N5CC(F)(F)CC5C#N)ccnc34)(COCCC(=O)NCCNC(=O)CCC(=O)Nc3cccc4c(C(=O)NCC(=O)N5CC(F)(F)CC5C#N)ccnc34)NC(=O)CCC(C(=O)O)N3CCN(CC(=O)[O-])CCN(CC(=O)[O-])CCN(CC(=O)[O-])CC3)cccc12.[177Lu+3] (centres unmarked) [^177Lu-Tri-ESV6-DOTAGA] | – | −3.10 | does not significantly interfere with the advantageous biodistribution |
| N#C[C@@H]1CC(F)(F)CN1C(=O)CNC(=O)c1ccnc2c(NC(=O)CCC(=O)NCCNC(=O)CCC(C(=O)O)N3CCN(CC(=O)[O-])CCN(CC(=O)[O-])CCN(CC(=O)[O-])CC3)cccc12.[177Lu+3] (some centres unmarked) [^177Lu-ESV6-DOTAGA, reference compound] | – | −4.13 | – |
| N#CC1CC(F)(F)CN1C(=O)CNC(=O)c1ccnc2c(NC(=O)CCC(=O)NCCCCC(NC(=O)CCC(=O)Nc3cccc4c(C(=O)NCC(=O)N5CC(F)(F)CC5C#N)ccnc34)C(=O)NCCNC(=O)CCC(C(=O)O)N3CCN(CC(=O)[O-])CCN(CC(=O)[O-])CCN(CC(=O)[O-])CC3)cccc12.[177Lu+3] (centres unmarked) [^177Lu-Bi-ESV6-DOTAGA, reference compound] | – | −3.75 | – |
